Experimental findings from the supplement of paper PMC10307832 are described below.

For the first test, the system named is LOU-NH91. The test is described as follows: relative viability (nuclei count vs DMSO), 5 days (fraction); higher = more cells survive. As to conditions: first compound 2.53 µM. The essentials:
(§1)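 Relative viability was taken as the ratio of nuclei in treated wells to nuclei in vehicle wells. Lung cancer cell lines in 1536-well plates received compounds by pin tool one day after seeding, either one drug alone or a fixed anchor-drug dose plus five library-drug doses (not always all listed) in √10 steps. Nuclei were counted on 4× images after 5 days of treatment, and values are medians of duplicate plates.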
`CCCCCCCCCCCC1=C(O)C(=O)C=C(O)C1=O` [Embelin] + C[C@]1(O)C[C@@H](c2nc(-c3ccc4ccc(-c5ccccc5)nc4c3)c3c(N)nccn32)C1 [Linsitinib] (partner 1 µM) yielded a relative viability of 1.03.
The same measure, in the same setting: next, `CCCCCCCCCCCC1=C(O)C(=O)C=C(O)C1=O` [Embelin] + CC(C)C[C@H](NC(=O)[C@H](Cc1ccccc1)NC(=O)c1cnccn1)B(O)O [Bortezomib] (partner 0.002 µM): 0.504.
The same measure, in the same setting: next, `CCCCCCCCCCCC1=C(O)C(=O)C=C(O)C1=O` [Embelin] + CS(=O)(=O)CCNCc1ccc(-c2ccc3ncnc(Nc4ccc(OCc5cccc(F)c5)c(Cl)c4)c3c2)o1 [Lapatinib] (partner 2 µM): 0.866.
Same read-out and setting: as for `CCCCCCCCCCCC1=C(O)C(=O)C=C(O)C1=O` [Embelin] + C[C@@H](Oc1cc(-c2cnn(C3CCNCC3)c2)cnc1N)c1c(Cl)ccc(F)c1Cl [Crizotinib] (partner 1 µM), the figure is 0.763.

The same test, now with this note: first compound 8 µM.
`CCCCCCCCCCCC1=C(O)C(=O)C=C(O)C1=O` [Embelin] + O=C(CCCCCCC(=O)Nc1ccccc1)NO [Vorinostat] (partner 1 µM) registered a relative viability of 0.876.
The same measure, in the same setting: next, `CCCCCCCCCCCC1=C(O)C(=O)C=C(O)C1=O` [Embelin] + C[C@]1(O)C[C@@H](c2nc(-c3ccc4ccc(-c5ccccc5)nc4c3)c3c(N)nccn32)C1 [Linsitinib] (partner 1 µM): 0.877; `CCCCCCCCCCCC1=C(O)C(=O)C=C(O)C1=O` [Embelin] + CC(C)C[C@H](NC(=O)[C@H](Cc1ccccc1)NC(=O)c1cnccn1)B(O)O [Bortezomib] (partner 0.002 µM): 0.509.
As to `CCCCCCCCCCCC1=C(O)C(=O)C=C(O)C1=O` [Embelin] + CS(=O)(=O)CCNCc1ccc(-c2ccc3ncnc(Nc4ccc(OCc5cccc(F)c5)c(Cl)c4)c3c2)o1 [Lapatinib] (partner 2 µM), the relative viability worked out at 0.63.
The same measure, in the same setting: next, `CCCCCCCCCCCC1=C(O)C(=O)C=C(O)C1=O` [Embelin] + C[C@@H](Oc1cc(-c2cnn(C3CCNCC3)c2)cnc1N)c1c(Cl)ccc(F)c1Cl [Crizotinib] (partner 1 µM): 0.741.

Another test has as its system NCI-H838. Described as above. As to conditions: first compound 0.08 µM. The essentials: as §1
With `CCCCCCCCCCCC1=C(O)C(=O)C=C(O)C1=O` [Embelin] + O=C(CCCCCCC(=O)Nc1ccccc1)NO [Vorinostat] (partner 1 µM), the relative viability came to 0.746.
The same measure, in the same setting: as for `CCCCCCCCCCCC1=C(O)C(=O)C=C(O)C1=O` [Embelin] + C[C@]1(O)C[C@@H](c2nc(-c3ccc4ccc(-c5ccccc5)nc4c3)c3c(N)nccn32)C1 [Linsitinib] (partner 1 µM), the figure is 1.06; as for `CCCCCCCCCCCC1=C(O)C(=O)C=C(O)C1=O` [Embelin] + CC(C)C[C@H](NC(=O)[C@H](Cc1ccccc1)NC(=O)c1cnccn1)B(O)O [Bortezomib] (partner 0.002 µM), 1.38; as for `CCCCCCCCCCCC1=C(O)C(=O)C=C(O)C1=O` [Embelin] + CS(=O)(=O)CCNCc1ccc(-c2ccc3ncnc(Nc4ccc(OCc5cccc(F)c5)c(Cl)c4)c3c2)o1 [Lapatinib] (partner 2 µM), 1.07.
Same read-out and setting: next, `CCCCCCCCCCCC1=C(O)C(=O)C=C(O)C1=O` [Embelin] + C[C@@H](Oc1cc(-c2cnn(C3CCNCC3)c2)cnc1N)c1c(Cl)ccc(F)c1Cl [Crizotinib] (partner 1 µM): 0.874.

The test is the same for the next values; noted with them: first compound 0.8 µM.
`CCCCCCCCCCCC1=C(O)C(=O)C=C(O)C1=O` [Embelin] + O=C(CCCCCCC(=O)Nc1ccccc1)NO [Vorinostat] (partner 1 µM) showed a relative viability of 0.835.
`CCCCCCCCCCCC1=C(O)C(=O)C=C(O)C1=O` [Embelin] + C[C@]1(O)C[C@@H](c2nc(-c3ccc4ccc(-c5ccccc5)nc4c3)c3c(N)nccn32)C1 [Linsitinib] (partner 1 µM) had a relative viability of 1.13.
Still for that read-out and setting: as for `CCCCCCCCCCCC1=C(O)C(=O)C=C(O)C1=O` [Embelin] + CC(C)C[C@H](NC(=O)[C@H](Cc1ccccc1)NC(=O)c1cnccn1)B(O)O [Bortezomib] (partner 0.002 µM), the figure is 1.12; as for `CCCCCCCCCCCC1=C(O)C(=O)C=C(O)C1=O` [Embelin] + CS(=O)(=O)CCNCc1ccc(-c2ccc3ncnc(Nc4ccc(OCc5cccc(F)c5)c(Cl)c4)c3c2)o1 [Lapatinib] (partner 2 µM), 1.31.
Same read-out and setting: as for `CCCCCCCCCCCC1=C(O)C(=O)C=C(O)C1=O` [Embelin] + C[C@@H](Oc1cc(-c2cnn(C3CCNCC3)c2)cnc1N)c1c(Cl)ccc(F)c1Cl [Crizotinib] (partner 1 µM), the figure is 0.995.

The test is the same for the next values; noted with them: first compound 2.53 µM.
Consider `CCCCCCCCCCCC1=C(O)C(=O)C=C(O)C1=O` [Embelin] + O=C(CCCCCCC(=O)Nc1ccccc1)NO [Vorinostat] (partner 1 µM), for which the relative viability was found to be 0.782.
Same read-out and setting: next, `CCCCCCCCCCCC1=C(O)C(=O)C=C(O)C1=O` [Embelin] + C[C@]1(O)C[C@@H](c2nc(-c3ccc4ccc(-c5ccccc5)nc4c3)c3c(N)nccn32)C1 [Linsitinib] (partner 1 µM): 1.03.
`CCCCCCCCCCCC1=C(O)C(=O)C=C(O)C1=O` [Embelin] + CC(C)C[C@H](NC(=O)[C@H](Cc1ccccc1)NC(=O)c1cnccn1)B(O)O [Bortezomib] (partner 0.002 µM): the relative viability is 0.72.
Same read-out and setting: as for `CCCCCCCCCCCC1=C(O)C(=O)C=C(O)C1=O` [Embelin] + CS(=O)(=O)CCNCc1ccc(-c2ccc3ncnc(Nc4ccc(OCc5cccc(F)c5)c(Cl)c4)c3c2)o1 [Lapatinib] (partner 2 µM), the figure is 1.02; as for `CCCCCCCCCCCC1=C(O)C(=O)C=C(O)C1=O` [Embelin] + C[C@@H](Oc1cc(-c2cnn(C3CCNCC3)c2)cnc1N)c1c(Cl)ccc(F)c1Cl [Crizotinib] (partner 1 µM), 0.961.

Staying with this test, now noted: first compound 8 µM.
The molecule `CCCCCCCCCCCC1=C(O)C(=O)C=C(O)C1=O` [Embelin] + O=C(CCCCCCC(=O)Nc1ccccc1)NO [Vorinostat] (partner 1 µM) gave a relative viability of 0.704.
The same measure, in the same setting: as for `CCCCCCCCCCCC1=C(O)C(=O)C=C(O)C1=O` [Embelin] + C[C@]1(O)C[C@@H](c2nc(-c3ccc4ccc(-c5ccccc5)nc4c3)c3c(N)nccn32)C1 [Linsitinib] (partner 1 µM), the figure is 1.07; as for `CCCCCCCCCCCC1=C(O)C(=O)C=C(O)C1=O` [Embelin] + CC(C)C[C@H](NC(=O)[C@H](Cc1ccccc1)NC(=O)c1cnccn1)B(O)O [Bortezomib] (partner 0.002 µM), 0.936; as for `CCCCCCCCCCCC1=C(O)C(=O)C=C(O)C1=O` [Embelin] + CS(=O)(=O)CCNCc1ccc(-c2ccc3ncnc(Nc4ccc(OCc5cccc(F)c5)c(Cl)c4)c3c2)o1 [Lapatinib] (partner 2 µM), 1.14.
On to `CCCCCCCCCCCC1=C(O)C(=O)C=C(O)C1=O` [Embelin] + C[C@@H](Oc1cc(-c2cnn(C3CCNCC3)c2)cnc1N)c1c(Cl)ccc(F)c1Cl [Crizotinib] (partner 1 µM), for which the relative viability was determined as 1.02.
